Data as given in US11214594B2, “Antimicrobial peptide having synergistic antibacterial effect with antibiotics on multidrug resistant bacteria, and use thereof” (priority 2016, dated 2022).
Like-named read-outs stand apart in the source and are kept apart here. Where a SMILES comes first, the peptide text is derived from it. [ ]: non-standard residue; d: D form.

How the values were obtained:
A. baumannii [1] = experiment: MIC of antibiotic during combined treatment with antimicrobial peptide; format: cell-based, Acinetobacter baumannii; conditions: A. baumannii
Outline: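 MIC values for mixed peptide plus antibiotic solutions were measured in MH medium.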

E. coli = format: cell-based, Escherichia coli; conditions: E. coli
Outline: (§1)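 Antibiotic MIC came from antibiotic dilutions added to bacteria (2×10^6 CFU/ml, MH medium) already combined with peptide serially diluted 2:1 from its own MIC. Swapping the roles of the two agents gave the peptide MIC.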

MDREC 1229 = format: cell-based, Escherichia coli
Outline: as §1

A. baumannii [2] = experiment: MIC of antimicrobial peptide during combined treatment with antibiotic; format: cell-based, Acinetobacter baumannii
Outline: as §1

MDRAB 12035 = experiment: as above; format: cell-based, Acinetobacter baumannii
Outline: as §1

[3] = combined with peptide at 2 μg/ml
[4] = combined with peptide at 4 μg/ml
[5] = combined with peptide at 6 μg/ml
[6] = combined with peptide at 8 μg/ml
[7] = combined with peptide at 16 μg/ml
[8] = combined with peptide at 32 μg/ml
[9] = combined with peptide at 64 μg/ml
[10] = linezolid 64 μg/ml (Conc./MIC 1/8)
[11] = linezolid 512 μg/ml (Conc./MIC 1)
[12] = vancomycin 512 μg/ml (Conc./MIC 1/2)
[13] = vancomycin 1024 μg/ml (Conc./MIC 1)
[14] = erythromycin 4 μg/ml (Conc./MIC 1/8)
[15] = erythromycin 8 μg/ml (Conc./MIC 1/4)
[16] = erythromycin 16 μg/ml (Conc./MIC 1/2)
[17] = erythromycin 32 μg/ml (Conc./MIC 1)

CC[C@H](C)[C@H](NC(=O)[C@H](CCCCN)NC(=O)[C@H](Cc1c[nH]c2ccccc12)NC(=O)[C@@H](N)CCCNC(=N)N)C(=O)N[C@@H](Cc1ccccc1)C(=O)N[C@@H](CCCCN)C(=O)N[C@@H](CCCCN)C(=O)N[C@H](C(=O)N[C@H](CCCCN)C(=O)N[C@@H](CCCCN)C(=O)N[C@@H](CC(C)C)C(=O)N[C@@H](CC(C)C)C(=O)N[C@@H](Cc1c[nH]cn1)C(=O)N[C@@H](CO)C(=O)N[C@@H](C)C(=O)N[C@@H](CCCCN)C(=O)N[C@@H](CCCCN)C(=O)N[C@@H](Cc1c[nH]c2ccccc12)C(N)=O)[C@@H](C)CC [PapMA-16, RWK IFK KIk KLL HSA KKW-NH2] (H-RWKIFKKI[dK]KLLHSAKKW-NH2; N-terminus assumed)
1 µg/mL: Antibiotic MIC, Erythromycin (A. baumannii [1]; [5]) | Peptide MIC during treatment with antibiotic (MDREC 1229; linezolid […] (Conc./MIC 1/2)) | Peptide MIC during treatment with antibiotic (MDREC 1229; [13]) | Peptide MIC during treatment with linezolid (MDRAB 12035; linezolid […] (Conc./MIC 1/2)) | Peptide MIC during treatment with vancomycin (MDRAB 12035; [13])
64 µg/mL: Antibiotic MIC, Vancomycin (A. baumannii [1]; [4])
>128 µg/mL: Antibiotic MIC, Linezolid (A. baumannii [1]; [3])
32 µg/mL: Antibiotic MIC, Linezolid (A. baumannii [1]; [5]) | Antibiotic MIC, Vancomycin (A. baumannii [1]; [5])
0 µg/mL: Antibiotic MIC, Erythromycin (A. baumannii [1]; [8]) | Antibiotic MIC, Linezolid (A. baumannii [1]; [8]) | Antibiotic MIC, Vancomycin (A. baumannii [1]; [8]) | Antibiotic MIC, Erythromycin (A. baumannii [1]; [9]) | Antibiotic MIC, Linezolid (A. baumannii [1]; [9]) | Antibiotic MIC, Vancomycin (A. baumannii [1]; [9]) | Peptide MIC (E. coli; with Erythromycin […] (Conc./MIC 1)) | Peptide MIC (E. coli; with Linezolid […] (Conc./MIC 1)) | Peptide MIC (E. coli; with Vancomycin 1024 μg/ml (Conc./MIC 1)) | Peptide MIC during treatment with antibiotic (MDREC 1229; erythromycin […] (Conc./MIC 1)) | Peptide MIC during treatment with antibiotic (MDREC 1229; [11]) | Peptide MIC during treatment with antibiotic (A. baumannii [2]; [17]) | Peptide MIC during treatment with antibiotic (A. baumannii [2]; linezolid […] (Conc./MIC 1)) | Peptide MIC during treatment with antibiotic (A. baumannii [2]; [13]) | Peptide MIC during treatment with erythromycin (MDRAB 12035; [17]) | Peptide MIC during treatment with linezolid (MDRAB 12035; [11])
2 µg/mL: Peptide MIC during treatment with antibiotic (MDREC 1229; erythromycin 64 μg/ml (Conc./MIC 1/4)) | Peptide MIC during treatment with antibiotic (MDREC 1229; erythromycin […] (Conc./MIC 1/2)) | Peptide MIC during treatment with antibiotic (MDREC 1229; linezolid […] (Conc./MIC 1/4)) | Peptide MIC during treatment with antibiotic (MDREC 1229; [12]) | Peptide MIC during treatment with antibiotic (A. baumannii [2]; [16]) | Peptide MIC during treatment with antibiotic (A. baumannii [2]; vancomycin […] (Conc./MIC 1/8)) | Peptide MIC during treatment with vancomycin (MDRAB 12035; [12])
0.5 µg/mL: Antibiotic MIC, Erythromycin (A. baumannii [1]; [6]) | Peptide MIC during treatment with antibiotic (A. baumannii [2]; vancomycin […] (Conc./MIC 1/4))
16 µg/mL: Antibiotic MIC, Erythromycin (A. baumannii [1]; [3]) | Antibiotic MIC, Linezolid (A. baumannii [1]; [6]) | Antibiotic MIC, Vancomycin (A. baumannii [1]; [6])
8 µg/mL: Antibiotic MIC, Erythromycin (A. baumannii [1]; [4]) | Antibiotic MIC, Linezolid (A. baumannii [1]; [7]) | Antibiotic MIC, Vancomycin (A. baumannii [1]; [7]) | Peptide MIC during treatment with antibiotic (MDREC 1229; vancomycin […] (Conc./MIC 1/8)) | Peptide MIC during treatment with antibiotic (A. baumannii [2]; linezolid 32 μg/ml (Conc./MIC 1/8)) | Peptide MIC during treatment with antibiotic (A. baumannii [2]; linezolid 64 μg/ml (Conc./MIC 1/4)) | Peptide MIC during treatment with vancomycin (MDRAB 12035; vancomycin […] (Conc./MIC 1/8))
4 µg/mL: Peptide MIC during treatment with antibiotic (MDREC 1229; erythromycin 32 μg/ml (Conc./MIC 1/8)) | Peptide MIC during treatment with antibiotic (MDREC 1229; [10]) | Peptide MIC during treatment with antibiotic (MDREC 1229; vancomycin […] (Conc./MIC 1/4)) | Peptide MIC during treatment with antibiotic (A. baumannii [2]; [14]) | Peptide MIC during treatment with antibiotic (A. baumannii [2]; [15]) | Peptide MIC during treatment with antibiotic (A. baumannii [2]; linezolid […] (Conc./MIC 1/2)) | Peptide MIC during treatment with erythromycin (MDRAB 12035; [14]) | Peptide MIC during treatment with erythromycin (MDRAB 12035; [15]) | Peptide MIC during treatment with erythromycin (MDRAB 12035; [16]) | Peptide MIC during treatment with linezolid (MDRAB 12035; [10]) | Peptide MIC during treatment with linezolid (MDRAB 12035; linezolid […] (Conc./MIC 1/4)) | Peptide MIC during treatment with vancomycin (MDRAB 12035; vancomycin […] (Conc./MIC 1/4))
0.25 µg/mL: Antibiotic MIC, Erythromycin (A. baumannii [1]; [7]) | Peptide MIC during treatment with antibiotic (A. baumannii [2]; [12])
128 µg/mL: Antibiotic MIC, Vancomycin (A. baumannii [1]; [3]) | Antibiotic MIC, Linezolid (A. baumannii [1]; [4])
